Paper PMC10786919, “Design-rules for stapled peptides with in vivo activity and their application to Mdm2/X antagonists” (Nature Communications, 2024)
pEC50: −log10 of the molar value. Converted amounts (≈) assume the structure as drawn. Where two headings read alike, the source gives them in different places. Positions of bridges follow the written chain, without caps; N, C: chain ends. Non-standard residues stand in square brackets, D forms with d. Residues, ends and D or L forms follow the SMILES beside them. Lys(N3) = [N-]=[N+]=NCCCC[C@H](N)C(=O)O; R8 = C=CCCCCCC[C@@](C)(N)C(=O)O; Cba = N[C@@H](CC1CCC1)C(=O)O; S5 = C=CCCC[C@](C)(N)C(=O)O; Ahx = NCCCCCC(=O)O; βAla = NCCC(=O)O

Tests used:
[1] = Solubility assay (kinetic solubility, PBS pH 7); format: physicochemical
How it was run: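 Std: 10 mM stock → 100 µM in ACN/MeOH/DMSO (10:80:10). Sol. [µM] = (sample peak area / std peak area) × std conc.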

Ca Ski cell line = details: 72 h
How it was run: (§1)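 Compound dilution series (10 points, 3-fold, 10 mM top stock in DMSO) tested on overnight-plated Ca Ski cells in RPMI1640/10% FBS and on blasticidin-selected p53RE-bla HCT-116 cells in McCoy's 5A; read-out was CellTiter-Glo 2.0 luminescence after room-temperature equilibration.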

[2] = system: CellSensor p53RE-bla HCT-116 Cell Line; details: 72 h
How it was run: as §1

[3] = system: cells transiently transfected with the NanoLuc-HaloTag vector; experiment: in vitro; details: for cell entry EC50: 4 h; for Nanoclick permeability assay % Effect: 4Hr
How it was run: (§2)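 Azido-peptide permeability was read as loss of NanoBRET signal (donor 450 nm, acceptor 610 nm) after adding NanoBret618-azide at 10 μM final.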

[4] = system: p53 responsive β-lactamase reporter in HCT116 cells; experiment: cells; format: cell-based
How it was run: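 Read-out used the ToxBLAzer Dual Screen for β-lactamase driven by a stably integrated p53-responsive reporter. Assay: 8000 HCT116 cells per well at 0.5% final DMSO. Reported numbers are geometric means over a minimum of three biological replicates.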

[5] = Lactate dehydrogenase (LDH) release assay; format: cell-based
How it was run: (§3)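 Membrane damage measured as lactate dehydrogenase release (CytoTox-ONE kit) from p53-responsive β-lactamase reporter HCT116 cells plated at 8000 per well. Final DMSO 0.5%; geometric mean reported from a minimum of three biological replicates.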

HCT116 cells = experiment: Lactate dehydrogenase (LDH) release assay; format: cell-based
How it was run: as §3

[6] = system: Jump-In T-REx CHO-K1 BLA cells; experiment: cells; format: cell-based; details: for pEC50: read-out: TETCHO: Counterscreen EC50
[7] = Nanoclick permeability assay
How it was run: as §2

[8] = Experimental LogD (partition coefficient); details: not stated, Partition Coeff LogD
[9] = 0% FBS 4Hr, read-out: p53 reporter assay EC50
[10] = 0% FBS 4Hr, read-out: LDH: Cytotoxicity assay EC50
[11] = 10% FBS 16Hr, read-out: LDH: Cytotoxicity assay EC50
[12] = pH 7, aqueous buffer, kinetic from dmso stock, pH 7, PBS, read-out: Solubility
[13] = Nanoclick permeability assay EC50

CC(=O)N[C@@H](CCCCN=[N+]=[N-])C(=O)NCCC(=O)N[C@@H](CC(C)C)C(=O)N[C@H](C(=O)N[C@@H](Cc1ccccc1)C(=O)N[C@]1(C)CCCCCCC=CCCC[C@@](C)(C(=O)N2CCC[C@H]2C(=O)N2CCC[C@H]2C(=O)N2CCC[C@H]2C(=O)N2CCC[C@H]2C(=O)N2CCC[C@H]2C(=O)N2CCC[C@H]2C(N)=O)NC(=O)[C@H](CC2CCC2)NC(=O)[C@H](CCC(N)=O)NC(=O)[C@H](C)NC(=O)[C@H](Cc2c[nH]c3ccccc23)NC(=O)[C@H](Cc2ccc(O)cc2)NC(=O)[C@H](CCC(=O)O)NC1=O)[C@@H](C)O [MP-094]
solubility kinetic ([1]; pH 7, read-out: Solubility): 158 µM (≈ 367 µg/mL)
pEC50 (Ca Ski cell line): < 4.30
pEC50 [2]: 5.88
cell entry EC50 [3]: 0.942 µM

CC(=O)N[C@@H](CCCCN=[N+]=[N-])C(=O)NCCC(=O)N[C@@H](CC(C)C)C(=O)N[C@H](C(=O)N[C@@H](Cc1ccccc1)C(=O)N[C@]1(C)CCCCCCC=CCCC[C@@](C)(C(=O)N[C@@H](C)C(=O)N[C@@H](C)C(=O)N[C@@H](C)C(=O)N[C@@H](C)C(=O)N[C@@H](C)C(=O)N[C@@H](C)C(=O)N[C@@H](C)C(N)=O)NC(=O)[C@H](CC2CCC2)NC(=O)[C@H](CCC(N)=O)NC(=O)[C@H](C)NC(=O)[C@H](Cc2c[nH]c3ccccc23)NC(=O)[C@H](Cc2ccc(O)cc2)NC(=O)[C@H](CCC(=O)O)NC1=O)[C@@H](C)O [MP-471]
pEC50 (Ca Ski cell line): 4.57
pEC50 [2]: 4.97
cell entry EC50 [3]: 1.35 µM

CC(=O)N[C@@H](CCCCN=[N+]=[N-])C(=O)NCCC(=O)N[C@@H](CC(C)C)C(=O)N[C@H](C(=O)N[C@@H](Cc1ccccc1)C(=O)N[C@]1(C)CCCCCCC=CCCC[C@@](C)(C(=O)N[C@@H](CCO)C(=O)N[C@@H](CCO)C(=O)N[C@@H](Cc2ccccc2)C(=O)N[C@@H](CCO)C(=O)N[C@@H](CCO)C(=O)N[C@@H](Cc2ccccc2)C(N)=O)NC(=O)[C@H](CC2CCC2)NC(=O)[C@H](CCC(N)=O)NC(=O)[C@H](C)NC(=O)[C@H](Cc2c[nH]c3ccccc23)NC(=O)[C@H](Cc2ccc(O)cc2)NC(=O)[C@H](CCC(=O)O)NC1=O)[C@@H](C)O [MP-803]
solubility kinetic ([1]; pH 7, Solubility): 1 µM (≈ 2.44 µg/mL)
cell entry EC50 [3]: 6.86 µM

CC(=O)N[C@@H](CCCCN=[N+]=[N-])C(=O)NCCC(=O)N[C@@H](CC(C)C)C(=O)N[C@H](C(=O)N[C@@H](Cc1ccccc1)C(=O)N[C@]1(C)CCCCCCC=CCCC[C@@](C)(C(=O)N[C@@H](C)C(=O)N[C@@H](CCC(=O)O)C(=O)N[C@@H](C)C(=O)N[C@@H](C)C(=O)N[C@@H](C)C(=O)N[C@H](C)C(N)=O)NC(=O)[C@H](CC2CCC2)NC(=O)[C@H](CCC(N)=O)NC(=O)[C@H](C)NC(=O)[C@H](Cc2c[nH]c3ccccc23)NC(=O)[C@H](Cc2ccc(O)cc2)NC(=O)[C@H](CCC(=O)O)NC1=O)[C@@H](C)O [MP-965, AZIDE-ATSP-7041 (E5A,S12A)] (Ac-[Lys(N3)][βAla]LTF[R8]EYWAQ[Cba][S5]AEAAA[dA]-NH2; staple 6-13)
p53 reporter assay % Effect ([4]; 0% FBS 4Hr): 97.76%
pEC50 [4, 9]: 5.95
p53 reporter assay % Effect ([4]; 10% FBS 16Hr): 86.7%
pEC50 ([4]; read-out: Cell EC50 (16 hr, 10% FBS), p53 reporter assay, 16 hr, 10% FBS): 5.66
pEC50 [5, 10]: < 4.29
pEC50 [5, 11]: < 4.29
LDH: Cytotoxicity assay % Effect (HCT116 cells; 0% FBS 4Hr): -4.408%
LDH: Cytotoxicity assay % Effect (HCT116 cells; 10% FBS 16Hr): 5.517%
TETCHO: Counterscreen % Effect ([6]; 0% FBS 4Hr): -2.385%
pEC50 ([6]; 0% FBS 4Hr): < 4.30
TETCHO: Counterscreen % Effect ([6]; 10% FBS 16Hr): -17.5%
pEC50 ([6]; 10% FBS 16Hr): < 4.30
solubility kinetic [1, 12]: 161 µM (≈ 358 µg/mL)
cell entry EC50 [7]: 0.581 µM
Nanoclick permeability assay % Effect [3]: 110.3%
logD [8]: 2.69

CC(=O)N[C@@H](CCCCN=[N+]=[N-])C(=O)NCCC(=O)N[C@@H](CC(C)C)C(=O)N[C@H](C(=O)N[C@@H](Cc1ccccc1)C(=O)N[C@]1(C)CCCCCCC=CCCC[C@@](C)(C(=O)N[C@@H](C)C(=O)N[C@@H](CC(N)=O)C(=O)N[C@@H](C)C(=O)N[C@@H](C)C(=O)N[C@@H](C)C(=O)N[C@H](C)C(N)=O)NC(=O)[C@H](CC2CCC2)NC(=O)[C@H](CCC(N)=O)NC(=O)[C@H](C)NC(=O)[C@H](Cc2c[nH]c3ccccc23)NC(=O)[C@H](Cc2ccc(O)cc2)NC(=O)[C@H](CCC(=O)O)NC1=O)[C@@H](C)O [MP-967, AZIDE-KK-ATSP-7041 (L1A,T2A,E5A,Q9A,S12A)] (Ac-[Lys(N3)][βAla]LTF[R8]EYWAQ[Cba][S5]ANAAA[dA]-NH2; staple 6-13)
p53 reporter assay % Effect ([4]; 0% FBS 4Hr): 98.42%
pEC50 [4, 9]: 6.28
p53 reporter assay % Effect ([4]; 10% FBS 16Hr): 97.47%
pEC50 ([4]; 10% FBS 16Hr, read-out: p53 reporter assay EC50): 6.03
pEC50 [5, 10]: < 4.29
pEC50 [5, 11]: < 4.29
LDH: Cytotoxicity assay % Effect (HCT116 cells; 0% FBS 4Hr): 5.243%
LDH: Cytotoxicity assay % Effect (HCT116 cells; 10% FBS 16Hr): 11.93%
TETCHO: Counterscreen % Effect ([6]; 0% FBS 4Hr): -0.6324%
pEC50 ([6]; 0% FBS 4Hr): < 4.30
TETCHO: Counterscreen % Effect ([6]; 10% FBS 16Hr): -28.5%
pEC50 ([6]; 10% FBS 16Hr): < 4.30
solubility kinetic [1, 12]: 161 µM (≈ 356 µg/mL)
cell entry EC50 [7]: 3.89 µM
Nanoclick permeability assay % Effect [3]: 137.2%
logD [8]: 3.08

CC(=O)N[C@@H](CCCCN=[N+]=[N-])C(=O)NCCC(=O)N[C@@H](CC(C)C)C(=O)N[C@H](C(=O)N[C@@H](CO)C(=O)N[C@]1(C)CCCCCCC=CCCC[C@@](C)(C(=O)N[C@@H](CO)C(=O)N[C@@H](C)C(=O)N[C@@H](C)C(N)=O)NC(=O)[C@H](CO)NC(=O)[C@H](CCC(N)=O)NC(=O)[C@H](C)NC(=O)[C@H](CO)NC(=O)[C@H](Cc2ccc(O)cc2)NC(=O)[C@H](CCC(=O)O)NC1=O)[C@@H](C)O [MP-3352] (Ac-[Lys(N3)][βAla]LTS[R8]EYSAQS[S5]SAA-NH2; staple 6-13)
pEC50 ([4]; 0% FBS 4Hr, read-out: p53 reporter assay: EC50): < 4.30
pEC50 ([5]; LDH: Cytotoxicity assay: EC50): < 4.30
LDH: Cytotoxicity assay: % Effect (HCT116 cells): -2.39%
TETCHO: Counterscreen % Effect ([6]; 0% FBS 4Hr): 0.41%
pEC50 ([6]; 0% FBS 4Hr): < 4.30
solubility kinetic [1, 12]: 28 µM (≈ 49.6 µg/mL)
cell entry EC50 [7, 13]: 8.79 µM
Nanoclick permeability assay % Effect [3]: 36.66%
EPSA (physchem): 197 A^2
logD [8]: 1.55

CC(=O)N[C@@H](CCC(=O)O)C(=O)N[C@@H](CCC(=O)O)C(=O)N[C@@H](CCC(=O)O)C(=O)N[C@@H](CCCCN=[N+]=[N-])C(=O)NCCCCCC(=O)N[C@H](C(=O)N[C@@H](CO)C(=O)N[C@@H](Cc1ccccc1)C(=O)N[C@]1(C)CCCCCCC=CCCC[C@@](C)(C(N)=O)NC(=O)[C@H](CC(C)C)NC(=O)[C@H](CC(C)C)NC(=O)[C@H](C)NC(=O)[C@H](Cc2c[nH]c3ccccc23)NC(=O)[C@H](Cc2c[nH]c3ccccc23)NC(=O)[C@H](Cc2ccc(O)cc2)NC(=O)[C@H](CCC(=O)O)NC1=O)[C@@H](C)O [MP-9662] (Ac-EEE[Lys(N3)][Ahx]TSF[R8]EYWWALL[S5]-NH2; staple 9-17)
pEC50 [4, 9]: < 4.30
pEC50 ([5]; LDH: Cytotoxicity assay EC50): < 4.30
TETCHO: Counterscreen % Effect ([6]; 0% FBS 4Hr): 0.684%
pEC50 ([6]; 0% FBS 4Hr): < 4.30
TETCHO: Counterscreen % Effect ([6]; 0% FBS 16Hr): 0.2782%
pEC50 ([6]; 0% FBS 16Hr): < 4.30
solubility kinetic [1, 12]: 33 µM (≈ 76 µg/mL)
cell entry EC50 [7, 13]: 0.637 µM
Nanoclick permeability assay % Effect [3]: 111.3%
logD [8]: 1.86

CC(=O)N[C@@H](CCCCN=[N+]=[N-])C(=O)NCCC(=O)N[C@@H](CC(C)C)C(=O)N[C@H](C(=O)N[C@@H](Cc1ccccc1)C(=O)N[C@]1(C)CCCCCCC=CCCC[C@@](C)(C(=O)N[C@@H](CO)C(=O)N[C@@H](C)C(=O)N[C@@H](C)C(N)=O)NC(=O)[C@H](CC2CCC2)NC(=O)[C@H](CCC(N)=O)NC(=O)[C@H](C)NC(=O)[C@H](CCC(=O)O)NC(=O)[C@H](Cc2ccc(O)cc2)NC(=O)[C@H](CCC(=O)O)NC1=O)[C@@H](C)O [Peptide W7E]
shift of NanoClick permeability vs MP-081 ([3]; Glu scan): ~ 34 x
